Tests used:
[1] = biological target: T1, alpha2A receptor (Homo sapiens, UniProt P08913); assay: Receptor Selection and Amplification Technology (RSAT) assay, α2A; format: cell-based; details: relative to brimonidine (standard full agonist), NA = not active at concentrations less than 10 micromolar
T1 construct: expressed in transfected cells; host or cells: NIH-3T3
T1 sequence (P08913 1-465): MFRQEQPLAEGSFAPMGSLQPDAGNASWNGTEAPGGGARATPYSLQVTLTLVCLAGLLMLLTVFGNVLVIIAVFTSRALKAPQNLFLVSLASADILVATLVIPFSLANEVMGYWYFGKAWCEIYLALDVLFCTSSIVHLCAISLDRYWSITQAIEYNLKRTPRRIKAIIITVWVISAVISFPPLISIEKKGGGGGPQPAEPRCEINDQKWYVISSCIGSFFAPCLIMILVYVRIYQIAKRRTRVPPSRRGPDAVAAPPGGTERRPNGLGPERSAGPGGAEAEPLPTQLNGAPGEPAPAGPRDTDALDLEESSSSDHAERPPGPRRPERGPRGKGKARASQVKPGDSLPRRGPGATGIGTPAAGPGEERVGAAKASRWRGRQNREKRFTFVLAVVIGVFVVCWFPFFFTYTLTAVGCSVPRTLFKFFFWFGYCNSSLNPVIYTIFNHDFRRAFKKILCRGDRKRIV
Method: (§1) Receptor Selection and Amplification Technology (RSAT) Assay
(§2) The RSAT assay measures a receptor-mediated loss of contact inhibition that results in selective proliferation of receptor-containing cells in a mixed population of confluent cells. The increase in cell number is assessed with an appropriate transfected marker gene such as β-galactosidase, the activity of which can be easily measured in a 96-well format. Receptors that activate the G protein, Gq, elicit this response. Alpha2 receptors, which normally couple to Gi, activate the RSAT response when coexpressed with a hybrid Gq protein that has a Gi receptor recognition domain, called Gq/i5.
(§3) NIH-3T3 cells are plated at a density of 2×10^6 cells in 15 cm dishes and maintained in Dulbecco's modified Eagle's medium supplemented with 10% calf serum. […] After washing with phosphate-buffered saline, β-galactosidase enzyme activity is determined by adding 200 μl of the chromogenic substrate (consisting of 3.5 mM o-nitrophenyl-β-D-galactopyranoside and 0.5% nonidet P-40 in phosphate buffered saline), incubating overnight at 30° C. and measuring optical density at 420 nm. The absorbance is a measure of enzyme activity, which depends on cell number and reflects a receptor-mediated cell proliferation. […]

[2] = biological target: T2, alpha2B receptor (Homo sapiens, UniProt P18089); assay: Receptor Selection and Amplification Technology (RSAT) assay, α2B; format: cell-based; details: relative to brimonidine (standard full agonist), NA = not active at concentrations less than 10 micromolar
T2 construct: expressed in transfected cells; host or cells: NIH-3T3
T2 sequence (P18089 1-450): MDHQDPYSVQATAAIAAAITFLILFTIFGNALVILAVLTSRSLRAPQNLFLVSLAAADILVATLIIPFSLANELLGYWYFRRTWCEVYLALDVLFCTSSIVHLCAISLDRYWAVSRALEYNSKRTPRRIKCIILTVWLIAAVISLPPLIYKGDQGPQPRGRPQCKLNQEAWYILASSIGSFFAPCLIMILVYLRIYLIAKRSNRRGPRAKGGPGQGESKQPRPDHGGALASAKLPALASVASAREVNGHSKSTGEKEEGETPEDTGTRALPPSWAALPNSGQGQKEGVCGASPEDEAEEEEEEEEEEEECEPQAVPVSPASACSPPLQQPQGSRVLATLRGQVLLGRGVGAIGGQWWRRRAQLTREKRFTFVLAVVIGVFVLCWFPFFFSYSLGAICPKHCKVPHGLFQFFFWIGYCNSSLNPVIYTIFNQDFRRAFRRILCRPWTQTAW
Method: as §1, §2, §3

[3] = biological target: T3, alpha2C receptor (Homo sapiens, UniProt P18825); assay: Receptor Selection and Amplification Technology (RSAT) assay, α2C; format: cell-based; details: relative to brimonidine (standard full agonist), NA = not active at concentrations less than 10 micromolar
T3 construct: expressed in transfected cells; host or cells: NIH-3T3
T3 sequence (P18825 1-462): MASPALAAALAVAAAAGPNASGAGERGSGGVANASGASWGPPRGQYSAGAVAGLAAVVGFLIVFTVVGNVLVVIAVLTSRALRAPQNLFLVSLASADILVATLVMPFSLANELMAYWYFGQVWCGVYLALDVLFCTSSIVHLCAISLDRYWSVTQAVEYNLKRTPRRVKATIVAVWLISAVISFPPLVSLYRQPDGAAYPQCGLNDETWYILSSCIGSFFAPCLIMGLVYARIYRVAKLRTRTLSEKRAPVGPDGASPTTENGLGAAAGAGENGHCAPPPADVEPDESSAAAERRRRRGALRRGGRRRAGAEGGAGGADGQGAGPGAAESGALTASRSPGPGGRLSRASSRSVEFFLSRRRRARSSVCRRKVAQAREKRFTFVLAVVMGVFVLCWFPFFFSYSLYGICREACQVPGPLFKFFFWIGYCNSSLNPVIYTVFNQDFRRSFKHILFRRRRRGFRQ
Method: as §1, §2, §3

[4] = test system: locomotor activity; assay: Sedation model, rats (locomotor/exploratory activity); format: in vivo; details: for rat locomotor activity: 30 min following dosing (FIG. 3)
Method: (§4) The utility of alpha2-adrenergic agonists is limited by a range of side effects, particularly sedation and cardiovascular depression. The sedative activity of the compounds is assessed by measuring their ability to reduce the exploratory activity of mice and rats when placed in a dark chamber 30 min following dosing. The animal's activity is determined automatically by placing it in a digicom analyzer chamber (Omnitech Electronic). These chambers have photocells criss-crossing the box that are broken as the animal moves around. The computer analyzes this movement and records total activity over a 5-min time period. […] This represents greater than a 300-fold margin of safety (FIG. 4).

[5] = test system: locomotor activity; assay: Sedation model, mice (locomotor/exploratory activity); format: in vivo; details: oral dose of 3 mg/kg
Method: as §4

OCC1=CCC[C@@H](Cc2c[nH]c(=S)[nH]2)C1 (single isomer, unassigned) [Compound 5]
Intrinsic activity α2A [1]: 0.9
Intrinsic activity α2B [2]: 1.0
Intrinsic activity α2C [3]: 1.1

OCC1=CCCC(Cc2c[nH]c(=S)[nH]2)C1 (stereo not drawn) [Compound 1, 4-(3-Hydroxymethyl-cyclohex-3-enylmethyl)-1,3-dihydro-imidazole-2-thione]
sedation / locomotor activity, rats ([4]; general statement (FIG. 3)): does not sedate
rat locomotor activity ([4]; intraperitoneal doses up to at least 3 mg/kg): did not decrease
margin of safety ([4]; non-sedating dose in rats (ip 3 mg/kg, oral 10 mg/kg) versus active dose): ≥ 30 fold
rat locomotor activity ([4]; oral doses up to at least 10 mg/kg): did not decrease

O=C(CC1CCCC1)OCC1=CCCC(Cc2c[nH]c(=S)[nH]2)C1 (stereo not drawn) [Compound 3, cyclopentyl-acetic acid 5-(2-thioxo-2,3-dihydro-1H-imidazol-4-ylmethyl)-cyclohex-1-enylmethyl ester]
sedation, rats ([4]; oral dose of 3 mg/kg): did not sedate
sedation, mice [5]: did not sedate
